Data taken from patent US9670221B2, “Furopyridines as bromodomain inhibitors” (GlaxoSmithKline Intellectual Property (No.2) Limited, priority 2013, dated 2017).
Structures can show the parent of a compound that is named as a salt.

Biological target: T1, BRD4 BD1 (Homo sapiens, UniProt O60885, Y390A)
T1 construct: BRD4 (1-477) (Y97A) and (Y390A); made in house; host or cells: E. coli (pET15b vector)
Assay: TR-FRET binding assay, BRD4 BD1 (mutant protein)
Conditions: BRD4 (1-477) mutant, 10 nM protein, read-out: pIC50 in the BRD4 BD1 assay (converted)
Protocol: Time Resolved Fluorescence Resonance Energy Transfer (TR-FRET) Assay
Binding was assessed using a time resolved fluorescent resonance energy transfer binding assay. This utilises a 6 His purification tag at the N-terminal of the proteins as an epitope for an anti-6 His antibody labeled with Europium chelate (PerkinElmer AD0111) allowing binding of the Europium to the proteins which acts as the donor fluorophore. A small molecule, high affinity binder of the bromodomains BRD2, BRD3, BRD4 and BRDT has been labeled with Alexa Fluor647 (Reference Compound X) and this acts as the acceptor in the FRET pair.
Assay Principle: In the absence of a competing compound, excitation of the Europium causes the donor to emit at λ618 nm which excites the Alexa labelled bromodomain binding compound leading to an increased energy transfer that is measurable at λ647 […]. In the presence of a sufficient concentration of a compound that can bind these proteins, the interaction is disrupted leading to a quantifiable drop in fluorescent resonance energy transfer.
The binding of the compounds of formula (I) to Bromodomains BRD2, BRD3, BRD4 and BRDT was assessed using mutated proteins to detect differential binding to either Binding Domain 1 (BD1) or Binding Domain 2 (BD2) on the bromodomain. These single residue mutations in the acetyl lysine binding pocket greatly lower the affinity of the fluoroligand (Reference Compound X) for the mutated domain (>1000 fold selective for the non-mutated domain). Therefore in the final assay conditions, binding of the fluoroligand to the mutated domain cannot be detected and subsequently the assay is suitable to determine the binding of compounds to the single non-mutated bromodomain.
Protein production: Recombinant Human Bromodomains [(BRD2 (1-473) (Y113A) and (Y386A), BRD3 (1-435) (Y73A) and (Y348A) BRD4 (1-477) (Y97A) and (Y390A) and BRDT (1-397) (Y66A) and (Y309A)] were expressed in E. coli cells (in pET15b vector for BRD2/3/4 and in pET28a vector for BRDT) with a 6-His tag at the N-terminal. The His-tagged Bromodomain pellet was resuspended in 50 mM HEPES (pH7.5), 300 mM NaCl, 10 mM imidazole & 1 μl/mL protease inhibitor cocktail and extracted from the E. coli cells using sonication and purified using a nickel sepharose high performance column, the proteins were washed and then eluted with a linear gradient of 0-500 mM imidazole with buffer 50 mM HEPES (pH7.5), 150 mM NaCl, 500 mM imidazole, over 20 column volumes. Final purification was completed by Superdex 200 prep grade size exclusion column. Purified protein was stored at −80° C. in 20 mM HEPES pH 7.5 and 100 mM NaCl. Protein identity was confirmed by peptide mass fingerprinting and predicted molecular weight confirmed by mass spectrometry.
Protocol for Bromodomain BRD2, 3, 4 and T, BD1^+BD2 mutant assays: All assay components were dissolved in buffer composition of 50 mM HEPES pH7.4, 50 mM NaCl, 5% Glycerol, 1 mM DTT and 1 mM CHAPS. The final concentration of bromodomain proteins were 10 nM and the Alexa Fluor647 ligand was at Kd. These components were premixed and 5 μl of this reaction mixture was added to all wells containing 50 nl of various concentrations of test compound or DMSO vehicle (0.5% DMSO final) in Greiner 384 well black low volume microtitre plates and incubated in dark for 30 minutes at room temperature. 5 μl of detection mixture containing 1.5 nM final concentration anti-6His Europium chelate was added to all wells and a further dark incubation of at least 30 minutes was performed. Plates were then read on the Envision platereader, (λex=317 nm, donor λem=615 nm; acceptor λem=665 nm; Dichroic LANCE dual). Time resolved fluorescent intensity measurements were made at both emission wavelengths and the ratio of acceptor/donor was calculated and used for data analysis. All data was normalized to the mean of 16 high (inhibitor control—Example 11 of WO 2011/054846A1) and 16 low (DMSO) control wells on each plate. […]

| SMILES | IC50 [nM] |
| --- | --- |
| CC(=O)Nc1cc(-c2cn(C)c(=O)c3cc(C(C)N4CCN(S(C)(=O)=O)CC4)oc23)ccn1 (stereo not shown) [Example 36, N-(4-(5-methyl-2-(1-(4-(methylsulfonyl)piperazin-1-yl)ethyl)-4-oxo-4,5-dihydrofuro[3,2-c]pyridin-7-yl)pyridin-2-yl)acetamide, formic acid salt] | ≤ 100 |
| CC(=O)Nc1cc(-c2cn(C)c(=O)c3cc(CN4CCN(S(C)(=O)=O)CC4)oc23)ccn1 [Example 37, N-(4-(5-methyl-2-((4-(methylsulfonyl)piperazin-1-yl)methyl)-4-oxo-4,5-dihydrofuro[3,2-c]pyridin-7-yl)pyridin-2-yl)acetamide] | ≤ 100 |
| CC(=O)Nc1cncc(-c2cn(C)c(=O)c3cc(CN4CCN(S(C)(=O)=O)C[C@H]4C)oc23)c1 [Example 38, (R)—N-(5-(5-methyl-2-((2-methyl-4-(methylsulfonyl)piperazin-1-yl)methyl)-4-oxo-4,5-dihydrofuro[3,2-c]pyridin-7-yl)pyridin-3-yl)acetamide] | ≤ 100 |
| Cn1cc(-c2ccncc2NCC2CC2)c2oc(CN3CCN(S(C)(=O)=O)CC3)cc2c1=O [Example 39, 7-(3-((cyclopropylmethyl)amino)pyridin-4-yl)-5-methyl-2-((4-(methylsulfonyl)piperazin-1-yl)methyl)furo[3,2-c]pyridin-4(5H)-one] | ≤ 100 |
| C[C@@H]1CN(S(C)(=O)=O)CCN1Cc1cc2c(=O)n(C)cc(-c3ccncc3NCC3CC3)c2o1 [Example 40, (R)-7-(3-((cyclopropylmethyl)amino)pyridin-4-yl)-5-methyl-2-((2-methyl-4-(methylsulfonyl)piperazin-1-yl)methyl)furo[3,2-c]pyridin-4(5H)-one] | ≤ 100 |
| C[C@@H]1CN(S(C)(=O)=O)CCN1Cc1cc2c(=O)n(C)cc(-c3ccncc3OCC3CCO3)c2o1 (stereo partly drawn) [Example 41, 5-methyl-2-(((R)-2-methyl-4-(methylsulfonyl)piperazin-1-yl)methyl)-7-(3-(oxetan-2-ylmethoxy)pyridin-4-yl)furo[3,2-c]pyridin-4(5H)-one] | ≤ 100 |
| C[C@@H]1CN(S(C)(=O)=O)CCN1Cc1cc2c(=O)n(C)cc(-c3ccncc3OC[C@H]3CCO3)c2o1 [Example 42, 5-methyl-2-(((R)-2-methyl-4-(methylsulfonyl)piperazin-1-yl)methyl)-7-(3-((R)-oxetan-2-ylmethoxy)pyridin-4-yl)furo[3,2-c]pyridin-4(5H)-one] | ≤ 100 |
| C[C@@H]1CN(S(C)(=O)=O)CCN1Cc1cc2c(=O)n(C)cc(-c3ccncc3OC[C@@H]3CCO3)c2o1 [Example 43, 5-methyl-2-(((R)-2-methyl-4-(methylsulfonyl)piperazin-1-yl)methyl)-7-(3-((S)-oxetan-2-ylmethoxy)pyridin-4-yl)furo[3,2-c]pyridin-4(5H)-one] | ≤ 100 |
| C[C@@H]1CN(S(C)(=O)=O)CCN1Cc1cc2c(=O)n(C)cc(-c3ncccc3OCC3CC3)c2o1 [Example 44, (R)-7-(3-(cyclopropylmethoxy)pyridin-2-yl)-5-methyl-2-((2-methyl-4-(methylsulfonyl)piperazin-1-yl)methyl)furo[3,2-c]pyridin-4(5H)-one] | ≤ 100 |
| C[C@@H]1CN(S(C)(=O)=O)CCN1Cc1cc2c(=O)n(C)cc(-c3ccncc3OCC3COC3)c2o1 [Example 46, (R)-5-methyl-2-((2-methyl-4-(methylsulfonyl)piperazin-1-yl)methyl)-7-(3-(oxetan-3-ylmethoxy)pyridin-4-yl)furo[3,2-c]pyridin-4(5H)-one] | ≤ 100 |
| CC(=O)N1CCN(Cc2cc3c(=O)n(C)cc(-c4ccnc(OCC5CCOCC5)c4)c3o2)C(C)C1 (stereo not shown) [Example 47, 2-((4-acetyl-2-methylpiperazin-1-yl)methyl)-5-methyl-7-(2-((tetrahydro-2H-pyran-4-yl)methoxy)pyridin-4-yl)furo[3,2-c]pyridin-4(5H)-one hydrochloride] | ≤ 100 |
| CC(=O)Nc1cccc(-c2cn(C)c(=O)c3cc(CN4CCN(S(C)(=O)=O)CC4)oc23)c1 [Example 48, N-(3-(5-methyl-2-((4-(methylsulfonyl)piperazin-1-yl)methyl)-4-oxo-4,5-dihydrofuro[3,2-c]pyridin-7-yl)phenyl)acetamide] | ≤ 100 |
| C[C@@H]1CN(S(C)(=O)=O)CCN1Cc1cc2c(=O)n(C)cc(-c3cccnc3NCC3CC3)c2o1 [Example 49, (R)-7-(2-((cyclopropylmethyl)amino)pyridin-3-yl)-5-methyl-2-((2-methyl-4-(methylsulfonyl)piperazin-1-yl)methyl)furo[3,2-c]pyridin-4(5H)-one] | ≤ 100 |
| C[C@@H]1CN(S(C)(=O)=O)CCN1Cc1cc2c(=O)n(C)cc(-c3cccc(N)c3)c2o1 [Example 50, (R)-7-(3-aminophenyl)-5-methyl-2-((2-methyl-4-(methylsulfonyl)piperazin-1-yl)methyl)furo[3,2-c]pyridin-4(5H)-one] | ≤ 100 |
| CCOc1cnccc1-c1cn(C)c(=O)c2cc(CN3CCN(S(C)(=O)=O)C[C@H]3C)oc12 [Example 52, (R)-7-(3-ethoxypyridin-4-yl)-5-methyl-2-((2-methyl-4-(methylsulfonyl)piperazin-1-yl)methyl)furo[3,2-c]pyridin-4(5H)-one] | ≤ 100 |
| CC(=O)Nc1cccc(-c2cn(C)c(=O)c3cc(CN4CCN(S(C)(=O)=O)C[C@H]4C)oc23)n1 [Example 54, (R)-N-(6-(5-methyl-2-((2-methyl-4-(methylsulfonyl)piperazin-1-yl)methyl)-4-oxo-4,5-dihydrofuro[3,2-c]pyridin-7-yl)pyridin-2-yl)acetamide] | ≤ 100 |
| Cn1cc(-c2ccncc2OCC2CC2)c2oc(CN3CCCNCC3)cc2c1=O [Example 55, 2-((1,4-diazepan-1-yl)methyl)-7-(3-(cyclopropylmethoxy)pyridin-4-yl)-5-methylfuro[3,2-c]pyridin-4(5H)-one hydrochloride] | ≤ 100 |
| CN1CCCN(Cc2cc3c(=O)n(C)cc(-c4ccncc4OCC4CC4)c3o2)CC1 [Example 56, 7-(3-(cyclopropylmethoxy)pyridin-4-yl)-5-methyl-2-((4-methyl-1,4-diazepan-1-yl)methyl)furo[3,2-c]pyridin-4(5H)-one hydrochloride] | ≤ 100 |
| CN1CCCN(Cc2cc3c(=O)n(C)cc(-c4cccc(NCc5ccccn5)c4)c3o2)CC1 [Example 57, 5-methyl-2-((4-methyl-1,4-diazepan-1-yl)methyl)-7-(3-((pyridin-2-ylmethyl)amino)phenyl)furo[3,2-c]pyridin-4(5H)-one hydrochloride] | ≤ 100 |
| CC(C)Oc1cnccc1-c1cn(C)c(=O)c2cc(CN3CCN(S(C)(=O)=O)C[C@H]3C)oc12 [Example 58, (R)-7-(3-isopropoxypyridin-4-yl)-5-methyl-2-((2-methyl-4-(methylsulfonyl)piperazin-1-yl)methyl)furo[3,2-c]pyridin-4(5H)-one] | ≤ 100 |
| C[C@@H]1CN(S(C)(=O)=O)CCN1Cc1cc2c(=O)n(C)cc(-c3ccnc(N)c3)c2o1 [Example 59, (R)-7-(2-aminopyridin-4-yl)-5-methyl-2-((2-methyl-4-(methylsulfonyl)piperazin-1-yl)methyl)furo[3,2-c]pyridin-4(5H)-one] | ≤ 100 |
| C[C@@H]1CN(S(C)(=O)=O)CCN1Cc1cc2c(=O)n(C)cc(-c3ccncc3O)c2o1 [Example 60, (R)-7-(3-hydroxypyridin-4-yl)-5-methyl-2-((2-methyl-4-(methylsulfonyl)piperazin-1-yl)methyl)furo[3,2-c]pyridin-4(5H)-one] | ≤ 100 |
